Data from patent US7662607B2, “Chalaropsis lysozyme protein and its method of use in anti-bacterial applications” (New Century Pharmaceuticals, Inc., priority 2003, dated 2010).

Tests used:
[1] = system: Micrococcus lysodeikticus cells; test: HEW Lysozyme activity, turbidimetric rate determination with Micrococcus lysodeikticus cells (absorbance at 450 nm); type: biochemical; conditions: 50 mM Potassium Phosphate Buffer, pH 6.24, 25° C.
Method: HEW Lysozyme activity was tested with Micrococcus lysodeikticus cells in 50 mM Potassium Phosphate Buffer, pH 6.24 at 25° C. Absorbance at 450 nm is monitored for the turbidimetric rate determination on an Ultrospec 2000 spectrophotometer (ref).

Staphylococcus cell wall = test: Lysozyme Ch activity, turbidimetric rate determination with Staphylococcus cell wall (absorbance at 600 nm); type: biochemical; conditions: 50 mM Sodium acetate Buffer, pH 4.8, 25° C.
Method: In one example, the Chalaropsis Lysozyme PEGylation was carried out using the steps as follows: (1) 15 mg of Chalaropsis Lysozyme and 1.05 g of Methoxypolyethylene glycol succinimidyl succinate (MPSS) was added into 0.1 M Sodium phosphate buffer to make final volume of 10 ml. (2) The mixture was allowed to shake on a rotator for 120 hours. The mixture was run on a SDS-PAGE to verify PEGylation (FIG. 1). (3) The mixture was concentrated with a YM-10 centriprep to a final volume of 1 ml. (4) The protein was loaded onto a XK16 column packed with Sephacryl S-300 resin. Fractions were collected every 2 min, i.e. 2 mls. (5) The following fractions are run on two gels (FIG. 2 and FIG. 3): • Gel1: MW, 28, 30, 35, 40, 45, 50, 55, 60, 65 • Gel2: MW, 70, 75, 80, 83, 85, 90, 95, 99, 105. (6) Based on the gel, it was decided that fractions around tube 55 was fully PEGylated, and thus fractions 53 to 57 were pooled and concentrated. (7) Activity was tested at 1 mg/ml for both native and PEGylated protein. […] PEGylation of Lysozyme Ch
Lysozyme Ch activity was measured with Staphylococcus cell wall in 50 mM Sodium acetate Buffer, pH 4.8 at 25° C. Absorbance at 600 nm is monitored for the turbidimetric rate determination on an Ultrospec 2000 spectrophotometer (Ref. 2).

Molecule: HEW Lysozyme: HEW Lysozyme used as a control
- Activity with Micrococcus lysodeikticus cells (FIG. 6) [1]: reduces the absorbance in a non-linear way
- Activity against Staphylococcus cell wall (Staphylococcus cell wall): no activity

Molecule: PEGylated HEW Lysozyme: HEW Lysozyme PEGylated with MPSS as a control experiment, with or without inhibitors
- Activity with Micrococcus lysodeikticus cells (FIG. 6) [1]: lost its entire activity

B1: Lysozyme Ch: Lysozyme from fungus Chalaropsis species, N,O-diacetylmuramidase, corrected sequence SEQ ID NO:1 (protein, listed as Chalaropsis sp.)
chain: TVQGFDISSYQPSVNFAGAYSAGARFVIIKATEGTSYTNPSFSSQYTGATNAGFIRGGYHFAHPGETTGAAQADYFIAHGGGWSGDGITLPGMLDLESEGSNPACWGLSAASMVAWIKAFSDRYHAVTGRYPMLYTNPSWWSSCTGNSNAFVNTNPLVLARYASAPGTIPGGWPYQTIWQNSDAYAYGGDSNIFNGSADNLKKLATG
- Activity against Staphylococcus cell wall (Staphylococcus cell wall): excellent activity
